Assay results as given in patent publication EP0487930B1, “Benzo[C]phenanthridinium derivatives” (NIPPON KAYAKU KABUSHIKI KAISHA, priority 1990, dated 1992).
Structures can show the parent of a compound that is named as a salt. Where two headings read alike, the source gives them in different places.

Key:
[1] = Storage stability of the powder at room temperature; format: physicochemical; settings: stored at room temperature for a long period of time
Description: This compound is a powdery material having a yellowish color immediately after the production thereof. It gradually changes its color into brown. […] This is because a decomposition product, which is difficultly soluble in water, has been formed during the storage of the compound. So, it is not considered that the compound has properties suitable for formulating into a phamaceutical preparation.
2,3-(methylenedioxy)-5-methyl-7-hydroxy-8-ethoxy-benzo[c]phenanthridinium hydrogen sulfate (compound A-0), wherein the acid residue X^- is a hydrogen sulfate ion HSO4^-, is a compound according to the invention, and can be obtained as yellow powder. […] A 0.5 µM aqueous solution of 2,3-(methylenedioxy)-5-ethyl-7-hydroxy-8-methoxy-benzo[c]phenanthridinium chloride, wherein the acid residue X^- is a chloride ion Cl^-, has a pH of 4.3. On the other hand, a 0.5 µM aqueous solution of 2,3-(methylenedioxy)-5-methyl-7-hydroxy-8-methoxy-benzo[c]phenanthridinium hydrogen sulfate according to the invention, wherein the acid residue X^- is a hydrogen sulfate ion HSO4^-, has a pH of 3.9. […] There are no disadvantages in the pharmaceutical activities of such compounds when they have the form of hydrogen salts such as hydrogen sulfate salts. Therefore, the hydrogen salt compounds are practically useful as medicines in view of the enhanced stability thereof.

MMI = assay: Growth inhibition activity against tumor cells (Methylene Blue staining); format: cell-based
Protocol: (§1) Various tumor cells were cultured at 37°C for 24 hours in 5% gaseous carbon dioxide, and then subjected to an action of a test drug for 2-4 days. After that, the cells were stained with 0.05% Methylene Blue. The pigment were extracted from the stained cells. The growth inhibition rate of the cells was determined based on absorbance of the extracted pigment at 660 nm, and the 50% growth inhibitory concentration (IC50) was calculated.
(§2) In this table, the abbreviated expressions have the following tumor cells: HeLa S3 = carcinoma colli; MMI = ovarian cancer; SHIN-3 = ovarian cancer; N-231 = small cell lung cancer; Lu-130 = small cell lung cancer; Nakajima = gastric cancer; and the expression "n.t." represents "not tested". These tests were conducted according to a simultaneous comparison test method, except the case of HeLa S3.

HeLa S3 = assay: as above; format: cell-based; settings: Homo sapiens
Protocol: as §1, §2

Lu-130 = assay: as above; format: cell-based
Protocol: as §1, §2

SHIN-3 = assay: as above; format: cell-based
Protocol: as §1, §2

N-231 = assay: as above; format: cell-based
Protocol: as §1, §2

Nakajima = assay: as above; format: cell-based; settings: Nakajima = gastric cancer; test drug for 2-4 days
Protocol: as §1, §2

[2] = system: platelet aggregation caused by platelet activation factor (PAF) in platelet-rich plasma (PRP); assay: Inhibition activity on platelet aggregation (serotonin release, anti-PAF activity); format: cell-based, Japanese albino rabbits; settings: Oryctolagus cuniculus, PAF 10^-7 M, serotonin release inhibition rate; for inhibition at 25 µg/mL: Concentration 25 µg/ml; for inhibition at 50 µg/mL: Concentration 50 µg/ml; for inhibition at 100 µg/mL: Concentration 100 µg/ml
Protocol: Platelet-rich plasma (PRP) was collected from Japanese albino rabbits (weighing 3-4 kg). As a platelet aggregation inducer, platelet activation factor (PAF) was used in a final concentration of 10^-7 M. A test drug was added to PRP. After incubation for a definite period of time, PAF was added to cause a platelet aggregation reaction. The reaction was terminated with EDTA. After a centrifugation, the supernatant was removed to obtain platelet precipitates. Distilled water was added to the platelet precipitates, whereby the serotonin remained in the platelet was reacted with an orthophthalaldehyde reagent to form a serotonin-orthophthaladehyde condensate. The condensate was measured at an excited wavelength of 360 nm and at a measurement wavelength of 475 nm. Anti-PAF activity of the test drug was determined by the following equation. Serotonin release inhibition rate (%) =((Test drug + PAF) value - PAF value)/(Blank value - PAF value)x 100 [formula] In the equation, the expression "value" stands for "serotonin value".

[3] = MMI = ovarian cancer, test drug for 2-4 days, read-out: IC50
[4] = Lu-130 = small cell lung cancer, test drug for 2-4 days, read-out: IC50
[5] = SHIN-3 = ovarian cancer, test drug for 2-4 days, read-out: IC50
[6] = N-231 = small cell lung cancer, test drug for 2-4 days, read-out: IC50

Row | SMILES | IC50 (MMI) [µg/mL] | IC50 (HeLa S3; HeLa S3) [µg/mL] | IC50 (Lu-130) [µg/mL] | IC50 (SHIN-3) [µg/mL] | IC50 (N-231) [µg/mL] | IC50 (MMI; [3]) [µg/mL] | IC50 (Lu-130; [4]) [µg/mL] | IC50 (SHIN-3; [5]) [µg/mL] | IC50 (Nakajima) [µg/mL] | IC50 (N-231; [6]) [µg/mL] | inhibition at 25 µg/mL [2] [%] | inhibition at 50 µg/mL [2] [%] | inhibition at 100 µg/mL [2] [%] | also measured
1 | COc1ccc2c(c[n+](C)c3c4cc5c(cc4ccc23)OCO5)c1O [2,3-(methylenedioxy)-5-methyl-7-hydroxy-8-methoxy-benzo[c]phenanthridinium chloride] |  |  |  |  |  |  |  |  |  |  |  |  |  | stability on storage [1]: gradually decomposed
2 | COc1ccc2c(c[n+](C)c3c4cc5c(cc4ccc23)OCO5)c1O [Compound A-0, 2,3-(methylenedioxy)-5-methyl-7-hydroxy-8-methoxy-benzo[c]phenanthridinium hydrogen sulfate salt] | 0.12 | 0.15 | 0.055 | 0.192 | 0.036 |  |  |  |  |  |  |  |  | 
3 | CC[n+]1cc2c(O)c(OC)ccc2c2ccc3cc4c(cc3c21)OCO4 [Compound A-1, 2,3-(methylenedioxy)-5-ethyl-7-hydroxy-8-methoxy-benzo[c]phenanthridinium hydrogen sulfate salt] |  |  |  |  |  | 0.165 | 0.25 | 0.17 | 0.426 | 0.04 | 49.6 | 74.1 | 96.5 | IC50 (HeLa S3; HeLa S3 = carcinoma colli, test drug for 2-4 days, not part of the simultaneous comparison test, read-out: IC50): 0.177 µg/mL; inhibition at 12.5 µg/mL ([2]; Concentration 12.5 µg/ml): 25.2%
4 | CCC[n+]1cc2c(O)c(OC)ccc2c2ccc3cc4c(cc3c21)OCO4 [Compound A-2, 2,3-(methylenedioxy)-5-(n-propyl)-7-hydroxy-8-methoxy-benzo[c]phenanthridinium hydrogen sulfate salt] |  |  |  |  |  | 0.273 | 0.108 | 0.414 | 0.777 | 0.085 |  |  |  | 
5 | CC[n+]1cc2c(O)c(OC)ccc2c2ccc3ccccc3c21.O=S(=O)([O-])O [Compound A-3, 5-ethyl-7-hydroxy-8-methoxy-benzo[c]phenanthridinium hydrogen sulfate salt] |  | 0.69 |  |  |  |  |  |  |  |  |  |  |  | 
6 | COc1ccc2c(c[n+](C)c3c4ccccc4ccc23)c1O.O=S(=O)([O-])O [Compound A-4, 5-methyl-7-hydroxy-8-methoxy-benzo[c]phenanthridinium hydrogen sulfate salt] | 0.262 | 0.26 | 0.051 | 0.155 | 0.062 |  |  |  |  |  | 10.9 | 26.5 | 46.4 | 
